Measured values from US20230112450A1, “COMBINED USE OF CTB006 AND PONATINIB” (Beijing Sinotau Bio-Pharmaceuticals Technology Co., Ltd., priority 2020, published 2023).

What was measured:
PDX model CS225 = assay: Lung cancer PDX transplantation tumor model; type: in vivo, nude mice or NOD/SCID mice; details: day 28 after administration; CTB006 10 mg/kg iv qd, Ponatinib 30 mg/kg p.o qd
Description: (§4) To test the in vivo pharmacodynamic efficacy of CTB006 in combination with Ponatinib, several tumor animal models were selected for testing, including pancreatic cancer cells MIA-PACA-2 CDX model and multiple PDX models covering multiple cancers of intestinal cancer (CS237, CS263, CS264), lung cancer (CS225), and gastric cancer (CS266, GAS033). For mathematical statistics, ANOVA analysis was used, and P<0.05 indicates a statistically significant difference and is marked with *; P<0.01 indicates a highly significant statistical difference and is marked with **.
(§5) Patient-derived transplantation tumor models were established subcutaneously in nude mice or NOD/SCID mice, which was administered with CTB006 alone (10 mg/kg, iv, qd), Ponatinib alone (30 mg/kg, p.o, qd) the combination of them, while the control group was given an equal volume of saline.

PDX model CS266 = assay: Gastric cancer PDX transplantation tumor model; details: day 31; CTB006 10 mg/kg iv qd, Ponatinib 30 mg/kg p.o qd
Description: To test the in vivo pharmacodynamic efficacy of CTB006 in combination with Ponatinib, several tumor animal models were selected for testing, including pancreatic cancer cells MIA-PACA-2 CDX model and multiple PDX models covering multiple cancers of intestinal cancer (CS237, CS263, CS264), lung cancer (CS225), and gastric cancer (CS266, GAS033).
as §5
At day 31 after administration, when the mean tumor volume of the negative control group and CTB006 alone group reached 1 cm^3, the negative control group was sacrificed, and the administration was stopped for 5-Fu positive control group, Ponatinib alone group and the combination group and the observation continued.

Huh-1 cells = assay: Tumor cell survival by ATPlite after 24 h incubation; CDI; type: cell-based
Description: (§1) The interaction between CTB006 antibody and Ponatinib: we used coefficient of drug interaction (CDI)^[1,2] to evaluate the combined effect of CTB006 antibody and chemotherapeutic drugs. CDI was calculated according to the following formula: CDI=AB/A×B; AB was the ratio of the detection values of the two-drug combination group to the control group (survival rate of the drug combination group), and A or B was the ratio of the detection values of each individual drug to the control group (survival rate of the drug alone group).
(§2) The survival of each tumor cell was observed by ATPlite method after incubation at 37° C., 5% CO2 for 24 h.

HT29 cells = assay: as above; type: cell-based
Description: as §1, §2

N87 cells = assay: as above; type: cell-based
Description: as §1, §2

S2Lm7AA cells = assay: as above; type: cell-based
Description: as §1, §2

SGC-7901 cells = assay: as above; type: cell-based
Description: as §1, §2

SK-HEP-1 cells = assay: as above; type: cell-based
Description: as §1, §2

TE1 cells = assay: as above; type: cell-based
Description: as §1, §2

primary tumor cells S1 = assay: Killing of primary tumor cells from ovarian cancer ascites; CDI; type: cell-based
Description: as §1, §2

primary tumor cells S2 = assay: as above; type: cell-based
Description: as §1, §2

[1] = tested on: MIA-Paca-2 transplanted tumor; assay: Pancreatic cancer CDX model, subcutaneous transplantation; details: CTB006 10 mg/kg iv qw, Ponatinib 30 mg/kg p.o qd, alone or in combination, 22 days; euthanized at tumor volume 1 cm^3
Description: The CDX model was established by subcutaneous transplantation of MIA-Paca-2 in BALB/c nude mice (Vital River), and drug administration was started when the tumor volume was about 0.1 cm^3, and when it reached 1 cm^3, the animals were ethically euthanized and survival time was recorded. CTB006 (10 mg/kg, iv, qw) and Ponatinib (30 mg/kg, p.o, qd) were administered alone or in combination for treatment groups, and the control group was administered an equal volume of saline.

A549 cells = assay: Tumor cell survival by ATPlite after 24 h incubation; CDI; type: cell-based; details: for CDI: DR5 agonist in combination with Ponatinib
Description: as §1, §2
(§3) Methods were as described above.

MCF-7 cells = assay: as above; type: cell-based; details: for CDI: DR5 agonist in combination with Ponatinib
Description: as §1, §2, §3

S2VP10 cells = assay: as above; type: cell-based; details: for CDI: DR5 agonist in combination with Ponatinib
Description: as §1, §2, §3

PDX model CS263 = assay: Colorectal cancer PDX transplantation tumor model
Description: as §4, §5

PDX model GAS033 = assay: Gastric cancer PDX transplantation tumor model; type: in vivo, nude mice or NOD/SCID mice; details: day 16 after administration; CTB006 10 mg/kg iv qd, Ponatinib 30 mg/kg p.o qd
Description: as §4, §5

PDX model CS264 = assay: Colorectal cancer PDX transplantation tumor model; type: in vivo, nude mice or NOD/SCID mice; details: day 32 after administration; CTB006 10 mg/kg iv qd, Ponatinib 30 mg/kg p.o qd
Description: as §4, §5

PDX model CS237 = assay: Colorectal cancer PDX transplantation tumor model; type: in vivo, nude mice or NOD/SCID mice; details: day 52 after administration; CTB006 10 mg/kg iv qd, Ponatinib 30 mg/kg p.o qd
Description: as §4, §5

With `Cc1ccc(C(=O)Nc2ccc(CN3CCN(C)CC3)c(C(F)(F)F)c2)cc1C#Cc1cnc2cccnn12` [Ponatinib] the “tumor inhibition rates (TGI)” value (PDX model CS225) was 50%, the “tumor inhibition rates (TGI)” value (PDX model CS266) was 87.7% and the “Survival Rate (%)” value (Huh-1 cells; Ponatinib alone 15.625 nM) was 97.49%. For the same molecule, the “Survival Rate (%)” value (Huh-1 cells; Ponatinib alone 31.25 nM) was 92.59%, the “Survival Rate (%)” value (Huh-1 cells; Ponatinib alone 62.5 nM) was 91.15% and the “Survival Rate (%)” value (Huh-1 cells; Ponatinib alone 125 nM) was 83.68%. The “Survival Rate (%)” value (Huh-1 cells; Ponatinib alone 250 nM) was 79.87%, the “Survival Rate (%)” value (Huh-1 cells; Ponatinib alone 500 nM) was 70.61% and the “Survival Rate (%)” value (Huh-1 cells; Ponatinib alone 1000 nM) was 64.68%. The “Survival Rate (%)” value (HT29 cells; Ponatinib alone 15.625 nM) was 102.78%, the “Survival Rate (%)” value (HT29 cells; Ponatinib alone 31.25 nM) was 103.51% and the “Survival Rate (%)” value (HT29 cells; Ponatinib alone 62.5 nM) was 102.93%. The “Survival Rate (%)” value (HT29 cells; Ponatinib alone 125 nM) was 95.77%, the “Survival Rate (%)” value (HT29 cells; Ponatinib alone 250 nM) was 84.39% and the “Survival Rate (%)” value (HT29 cells; Ponatinib alone 500 nM) was 87.91%. For the same molecule, the “Survival Rate (%)” value (HT29 cells; Ponatinib alone 1000 nM) was 80.77%, the “Survival Rate (%)” value (N87 cells; Ponatinib alone 15.625 nM) was 87.89% and the “Survival Rate (%)” value (N87 cells; Ponatinib alone 31.25 nM) was 83.79%. The “Survival Rate (%)” value (N87 cells; Ponatinib alone 62.5 nM) was 84.36%, the “Survival Rate (%)” value (N87 cells; Ponatinib alone 125 nM) was 83.71% and the “Survival Rate (%)” value (N87 cells; Ponatinib alone 250 nM) was 82.65%. For the same molecule, the “Survival Rate (%)” value (N87 cells; Ponatinib alone 500 nM) was 84.46%, the “Survival Rate (%)” value (N87 cells; Ponatinib alone 1000 nM) was 82.19% and the “Survival Rate (%)” value (S2Lm7AA cells; Ponatinib alone 15.625 nM) was 90.79%. For the same molecule, the “Survival Rate (%)” value (S2Lm7AA cells; Ponatinib alone 31.25 nM) was 90.05%, the “Survival Rate (%)” value (S2Lm7AA cells; Ponatinib alone 62.5 nM) was 85.82% and the “Survival Rate (%)” value (S2Lm7AA cells; Ponatinib alone 125 nM) was 87.89%. The “Survival Rate (%)” value (S2Lm7AA cells; Ponatinib alone 250 nM) was 79.85%, the “Survival Rate (%)” value (S2Lm7AA cells; Ponatinib alone 500 nM) was 76.76% and the “Survival Rate (%)” value (S2Lm7AA cells; Ponatinib alone 1000 nM) was 77.11%. The “Survival Rate (%)” value (SGC-7901 cells; Ponatinib alone 15.625 nM) was 100.08%, the “Survival Rate (%)” value (SGC-7901 cells; Ponatinib alone 31.25 nM) was 98.30% and the “Survival Rate (%)” value (SGC-7901 cells; Ponatinib alone 62.5 nM) was 99.90%. The “Survival Rate (%)” value (SGC-7901 cells; Ponatinib alone 125 nM) was 95.83%, the “Survival Rate (%)” value (SGC-7901 cells; Ponatinib alone 250 nM) was 86.80% and the “Survival Rate (%)” value (SGC-7901 cells; Ponatinib alone 500 nM) was 75.77%. The “Survival Rate (%)” value (SGC-7901 cells; Ponatinib alone 1000 nM) was 61.42%, the “Survival Rate (%)” value (SK-HEP-1 cells; Ponatinib alone 15.625 nM) was 95.48% and the “Survival Rate (%)” value (SK-HEP-1 cells; Ponatinib alone 31.25 nM) was 92.47%. For the same molecule, the “Survival Rate (%)” value (SK-HEP-1 cells; Ponatinib alone 62.5 nM) was 92.34%, the “Survival Rate (%)” value (SK-HEP-1 cells; Ponatinib alone 125 nM) was 84.53% and the “Survival Rate (%)” value (SK-HEP-1 cells; Ponatinib alone 250 nM) was 77.45%. For the same molecule, the “Survival Rate (%)” value (SK-HEP-1 cells; Ponatinib alone 500 nM) was 68.54%, the “Survival Rate (%)” value (SK-HEP-1 cells; Ponatinib alone 1000 nM) was 67.85% and the “Survival Rate (%)” value (TE1 cells; Ponatinib alone 15.625 nM) was 107.94%. The “Survival Rate (%)” value (TE1 cells; Ponatinib alone 31.25 nM) was 103.25%, the “Survival Rate (%)” value (TE1 cells; Ponatinib alone 62.5 nM) was 104.04% and the “Survival Rate (%)” value (TE1 cells; Ponatinib alone 125 nM) was 100.27%. The “Survival Rate (%)” value (TE1 cells; Ponatinib alone 250 nM) was 97.30%, the “Survival Rate (%)” value (TE1 cells; Ponatinib alone 500 nM) was 89.97% and the “Survival Rate (%)” value (TE1 cells; Ponatinib alone 1000 nM) was 73.00%. The “Survival Rate (%)” value (primary tumor cells S1; Ponatinib alone 25 nM) was 89.60%, the “Survival Rate (%)” value (primary tumor cells S1; Ponatinib alone 50 nM) was 101.09% and the “Survival Rate (%)” value (primary tumor cells S1; Ponatinib alone 100 nM) was 85.81%. The “Survival Rate (%)” value (primary tumor cells S1; Ponatinib alone 200 nM) was 82.23%, the “Survival Rate (%)” value (primary tumor cells S2; Ponatinib alone 25 nM) was 101.93% and the “Survival Rate (%)” value (primary tumor cells S2; Ponatinib alone 50 nM) was 109.27%. For the same molecule, the “Survival Rate (%)” value (primary tumor cells S2; Ponatinib alone 100 nM) was 98.46%, the “Survival Rate (%)” value (primary tumor cells S2; Ponatinib alone 200 nM) was 90.46% and the median survival time [1] was 34.5 days. For the same molecule, the “Survival Rate (%)” value (A549 cells; Ponatinib alone 15.625 nM) was 101.54%, the “Survival Rate (%)” value (A549 cells; Ponatinib alone 31.25 nM) was 106.99% and the “Survival Rate (%)” value (A549 cells; Ponatinib alone 62.5 nM) was 105.05%. The “Survival Rate (%)” value (A549 cells; Ponatinib alone 125 nM) was 107.07%, the “Survival Rate (%)” value (A549 cells; Ponatinib alone 250 nM) was 104.14% and the “Survival Rate (%)” value (A549 cells; Ponatinib alone 500 nM) was 93.76%. The “Survival Rate (%)” value (A549 cells; Ponatinib alone 1000 nM) was 81.32%, the “Survival Rate (%)” value (MCF-7 cells; Ponatinib alone 15.625 nM) was 102.70% and the “Survival Rate (%)” value (MCF-7 cells; Ponatinib alone 62.5 nM) was 103.26%. The “Survival Rate (%)” value (MCF-7 cells; Ponatinib alone 250 nM) was 94.14%, the “Survival Rate (%)” value (MCF-7 cells; Ponatinib alone 1000 nM) was 68.81% and the “Survival Rate (%)” value (S2VP10 cells; Ponatinib alone 15.625 nM) was 98.02%. For the same molecule, the “Survival Rate (%)” value (S2VP10 cells; Ponatinib alone 31.25 nM) was 97.47%, the “Survival Rate (%)” value (S2VP10 cells; Ponatinib alone 62.5 nM) was 99.87% and the “Survival Rate (%)” value (S2VP10 cells; Ponatinib alone 125 nM) was 96.84%. For the same molecule, the “Survival Rate (%)” value (S2VP10 cells; Ponatinib alone 250 nM) was 87.54%, the “Survival Rate (%)” value (S2VP10 cells; Ponatinib alone 500 nM) was 75.12% and the “Survival Rate (%)” value (S2VP10 cells; Ponatinib alone 1000 nM) was 69.06%. For the same molecule, the “tumor inhibition rates (TGI)” value (PDX model CS263; day 44 after administration, CTB006 10 mg/kg iv qd, Ponatinib 30 mg/kg p.o qd) was 45.3%, the median survival (PDX model CS263; time to reach the mean tumor volume of 1.0 cm^3 as cutoff, administration stopped at day 44) was 56 days and the “tumor inhibition rate (TGI)” value (PDX model GAS033) was 37%. For the same molecule, the “tumor inhibition rates (TGI)” value (PDX model CS264) was 32.4% and the “tumor inhibition rate (TGI)” value (PDX model CS237) was 43.8%.

In the case of `O=c1[nH]cc(F)c(=O)[nH]1` [5-Fu], the “tumor inhibition rates (TGI)” value (PDX model CS266) is reported as 57.5% and the “tumor inhibition rates (TGI)” value (PDX model CS264) is reported as 31.2%.

“AMG655: DR5 agonistic monoclonal antibody Conatumumab (AMG655, Amgen)” was tested, and the CDI (A549 cells) was 0.6362, the CDI (MCF-7 cells) was 0.317 and the killing effect (MCF-7 cells; drug alone) was “significant killing effect”. For the same molecule, the killing effect (MCF-7 cells; used in combination) was “more significant” and the CDI (S2VP10 cells) was 0.8123.

In the case of `CC(=O)O[C@H]1C(=O)[C@@]2(C)[C@H]([C@H](OC(=O)c3ccccc3)[C@]3(O)C[C@H](OC(=O)[C@H](O)[C@@H](NC(=O)c4ccccc4)c4ccccc4)C(C)=C1C3(C)C)[C@]1(OC(C)=O)CO[C@@H]1C[C@@H]2O` [Taxol], the “tumor inhibition rates (TGI)” value (PDX model CS225) is reported as 50%.

B1: TRAIL: DR5 natural ligand TRAIL (Sino Biological) (protein, UniProt P50591 1-281, looked up)
Tumor necrosis factor ligand …: MAMMEVQGGPSLGQTCVLIVIFTVLLQSLCVAVTYVYFTNELKQMQDKYSKSGIACFLKEDDSYWDPNDEESMNSPCWQVKWQLRQLVRKMILRTSEETISTVQEKQQNISPLVRERGPQRVAAHITGTRGRSNTLSSPNSKNEKALGRKINSWESSRSGHSFLSNLHLRNGELVIHEKGFYYIYSQTYFRFQEEIKENTKNDKQMVQYIYKYTSYPDPILLMKSARNSCWSKDAEYGLYSIYQGGIFELKENDRIFVSVTNEHLIDMDHEASFFGAFLVG
With B1 the CDI (A549 cells) was 0.7329, the CDI (MCF-7 cells) was 0.3303 and the killing effect (MCF-7 cells; drug alone) was “did not have a significant killing effect”. For the same molecule, the CDI (S2VP10 cells) was 0.5179.
